Data reported in patent publication US6831075B2, “Heterocyclic substituted pyrazolones” (Cephalon, Inc., priority 1999, dated 2004).

Experiments:
Format in all cases: biochemical
[1] = target: T1, recombinant human baculoviral VEGFR2 cyctoplasmic domain (Homo sapiens, UniProt P35968); test: VEGFR2 kinase inhibition assay (ELISA-based, time-resolved fluorescence); conditions: 1 uM compound, 30 μM ATP; for inhibition at 1 µM: read-out: VEGFR-2 kinase % inhibition @ 1 uM
T1 construct: recombinant human baculoviral VEGFR2 cyctoplasmic domain; host or cells: baculovirus expression system
Experimental: Inhibition of Vascular Endothelial Growth Factor Receptor-2 Kinase Activity
Assay were performed as described for trkA kinase below. The 96-well microtiter plate (FluoroNUNC Maxisorp) was coated with 40 μg/ml recombinant human phospholipase C-γ1/glutathione S-transferase fusion protein. Inhibition studies were performed in 100 μl assay mixtures containing 50 mM HEPES, pH 7.4, 30 μM ATP, 10 mM MnCl2, 0.1% BSA, 2% DMSO, and 1 μM of test compound. The reaction was initiated by adding prephosphorylated recombinant human baculoviral VEGFR2 cyctoplasmic domain. The reaction was allowed to proceed for 15 minutes at 37° C. The detection antibody, eurpium-labeled anti-phosphotyrosine antibody (Wallac #CR04-100), was added at 1:5000 dilution in block buffer (3% BSA in TBST).

[2] = target: T2, baculovirus-expressed human trkA cytoplasmic domain (Homo sapiens, UniProt P04629); test: trkA tyrosine kinase inhibition assay (ELISA-based); conditions: 1 uM compound; 40 μM ATP
T2 construct: baculovirus-expressed human trkA cytoplasmic domain; host or cells: baculovirus expression system
Experimental: Inhibition of trkA Tyrosine Kinase Activity
Selected heterocyclic substituted pyrazolones were tested for their ability to inhibit the kinase activity of baculovirus-expressed human trkA cytoplasmic domain using an ELISA-based assay as previously described (Angeles et al., Anal. Biochem. 236: 49-55, 1996). Briefly, a 96-well microtiter plate was coated with substrate solution (recombinant human phospholipase C-γl/glutathione S-transferase fusion protein (Rotin et al., EMBO J., 11: 559-567, 1992). Inhibition studies were performed in 100 μl assay mixtures containing 50 mM Hepes, pH 7.4, 40 μM ATP, 10 mM MnCl2, 0.1% BSA, 2% DMSO, and various concentrations of inhibitor. The reaction was initiated by addition of trkA kinase and allowed to proceed for 15 minutes at 37° C. An antibody to phosphotyrosine (UBI) was then added, followed by a secondary enzyme-conjugated antibody, alkaline phosphatase-labelled goat anti-mouse IgG (Bio-Rad). The activity of the bound enzyme was measured via an amplified detection system (Gibco-BRL). Inhibition data were analyzed using the sigmoidal dose-response (variable slope) equation in GraphPad Prism.

baculoviral GST-MLK1KD = target: T3, baculoviral GST-MLK1KD (Homo sapiens, UniProt P80192); test: Mixed Lineage Kinase-1 inhibition assay (Millipore Multiscreen TCA in-plate, 32P); conditions: for MLK-1 Kinase % inhibition @ 1 uM: 1 uM compound, 60 μM ATP; for inhibition at 1 µM: read-out: MLK-1 Kinase % inhibition @ 1 uM
T3 construct: 1 μg/ml of baculoviral GST-MLK1KD; GST (N); host or cells: baculovirus expression system
Experimental: Inhibition of Mixed Lineage Kinase-1 Activity
The kinase activity of MLK1 was assessed using the Millipore Multiscreen TCA “in-plate” format as described for protein kinase C (Pitt & Lee, J. Biomol. Screening, 1: 47-51, 1996). Briefly, each 50-μl assay mixture contained 20 mM Hepes, pH 7.0, 1 mM EGTA, 10 mM MgCl2, 1 mM DTT, 25 mM β-glycerophosphate, 60 μM ATP, 0.25 μCi [γ-^32P]ATP, 0.1% BSA, 500 μg/ml myelin basic protein (UBI #13-104), 2% DMSO, 1 μM of test compound, and 1 μg/ml of baculoviral GST-MLK1KD. Samples were incubated for 15 min at 37° C. The reaction was stopped by adding ice cold 50% TCA and the protein were allowed to precipitate for 30 min at 4° C. The plates were then washed with ice cold 25% TCA. Supermix scintillation cocktail was added, and the plates were allowed to equilibrate for 1-2 hours prior to counting using the Wallac MicroBeta 1450 PLUS scintillation counter.

T1 sequence (P35968 786-1356 limits assumed): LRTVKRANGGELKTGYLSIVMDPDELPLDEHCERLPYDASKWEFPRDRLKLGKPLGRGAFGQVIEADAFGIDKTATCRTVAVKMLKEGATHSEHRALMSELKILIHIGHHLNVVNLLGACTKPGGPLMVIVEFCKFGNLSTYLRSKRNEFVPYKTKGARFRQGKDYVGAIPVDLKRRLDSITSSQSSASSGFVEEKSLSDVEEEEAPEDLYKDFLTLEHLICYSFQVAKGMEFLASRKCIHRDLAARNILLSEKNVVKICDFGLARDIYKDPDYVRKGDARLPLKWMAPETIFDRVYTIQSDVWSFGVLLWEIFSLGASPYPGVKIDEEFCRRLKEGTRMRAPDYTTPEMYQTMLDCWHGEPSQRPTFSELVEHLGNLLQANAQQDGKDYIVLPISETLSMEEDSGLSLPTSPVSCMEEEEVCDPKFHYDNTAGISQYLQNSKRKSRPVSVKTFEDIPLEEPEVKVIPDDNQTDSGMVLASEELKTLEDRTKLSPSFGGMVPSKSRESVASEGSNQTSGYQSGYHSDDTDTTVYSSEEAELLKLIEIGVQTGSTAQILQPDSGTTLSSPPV
T2 sequence (P04629 440-796 limits assumed): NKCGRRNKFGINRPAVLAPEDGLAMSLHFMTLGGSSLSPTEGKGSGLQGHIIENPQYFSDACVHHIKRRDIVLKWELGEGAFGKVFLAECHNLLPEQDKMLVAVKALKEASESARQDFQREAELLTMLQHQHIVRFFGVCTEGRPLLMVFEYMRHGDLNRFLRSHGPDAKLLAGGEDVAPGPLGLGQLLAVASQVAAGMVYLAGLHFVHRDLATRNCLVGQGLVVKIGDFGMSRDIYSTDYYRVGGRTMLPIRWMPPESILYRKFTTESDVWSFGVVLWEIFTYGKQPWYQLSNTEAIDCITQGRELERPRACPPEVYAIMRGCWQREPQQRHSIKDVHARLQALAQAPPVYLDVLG
T3 sequence (P80192 144-412 limits assumed): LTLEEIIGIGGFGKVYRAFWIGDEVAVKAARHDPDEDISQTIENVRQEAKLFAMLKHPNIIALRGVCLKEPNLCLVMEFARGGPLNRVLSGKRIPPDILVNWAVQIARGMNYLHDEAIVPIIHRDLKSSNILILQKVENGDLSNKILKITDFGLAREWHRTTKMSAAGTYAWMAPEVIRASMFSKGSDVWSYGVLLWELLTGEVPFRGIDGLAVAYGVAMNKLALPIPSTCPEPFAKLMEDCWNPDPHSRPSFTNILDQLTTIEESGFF

Row | Structure (SMILES) | VEGFR-2 kinase % inhibition @ 1 uM [1] [%] | trkA % inhibition @ 1 uM [2] [%] | MLK-1 Kinase % inhibition @ 1 uM (baculoviral GST-MLK1KD) [%] | inhibition at 1 µM [1] [%] | inhibition at 1 µM [2] [%] | inhibition at 1 µM (baculoviral GST-MLK1KD) [%]
1 | Cc1cccc2c(C=C3C(=O)NN=C3c3ccoc3)c[nH]c12 [Compound 22] | 41 | 44 | 1 | – | – | –
2 | O=C1NN=C(c2ccco2)C1=Cc1c[nH]c2ccc(OCc3ccccc3)cc12 [Compound 43] | 25 | 42 | 13 | – | – | –
3 | O=C1NN=C(c2nccs2)C1=Cc1cn(CCOCc2ccccc2)c2ccccc12 [Compound 72] | 3 | 38 | 14 | – | – | –
4 | Cc1cc(C)c(C=C2C(=O)NN=C2c2cccs2)[nH]1 [Compound 61] | 75 | 35 | 8 | – | – | –
5 | Cn1ccc(C2=NNC(=O)C2=Cc2c[nH]c3cccc(OCc4ccccc4)c23)c1 [Compound 31] | 16 | 39 | 27 | – | – | –
6 | N#CCCn1cc(C=C2C(=O)NN=C2c2nccs2)c2ccccc21 [Compound 64] | 43 | 10 | 10 | – | – | –
7 | Cc1cc(C)c(C=C2C(=O)NN=C2c2csc3ccccc23)[nH]1 [Compound 39] | 13 | 31 | 4 | – | – | –
8 | CCOC(=O)CCc1c(C(=O)OCC)[nH]c(C=C2C(=O)NN=C2c2ccoc2)c1CC(=O)OCC [Compound 7] | −3 | 33 | 9 | – | – | –
9 | Cc1cc(C)c(C=C2C(=O)NN=C2c2csc(-c3ccccc3)n2)[nH]1 [Compound 40] | 26 | 27 | 33 | – | – | –
10 | Cc1nc[nH]c1C=C1C(=O)NN=C1c1ccco1 [Compound 53] | 34 | 20 | 7 | – | – | –
11 | Cc1cc(C)c(C=C2C(=O)NN=C2c2cc3ccccc3o2)[nH]1 [Compound 57, 3-benzo[d]furan-2-yl-4-[(3,5-dimethylpyrrol-2-yl)methylene]-2-pyrazolin-5-one] | – | – | – | 30 | 33 | 44
12 | Cc1cc(C)c(C=C2C(=O)NN=C2c2ccncc2)[nH]1 [Compound 3] | 39 | 60 | 2 | – | – | –
13 | O=C1NN=C(c2ccco2)C1=Cc1c[nH]c2ccccc12 [Compound 29, 3-(2-furyl)-4-(indol-3-ylmethylene)-2-pyrazolin-5-one] | – | – | – | 68 | 43 | 21
14 | Cc1cc(C)c(C=C2C(=O)NN=C2c2c(C)coc2C)[nH]1 [Compound 27] | 40 | 49 | 6 | – | – | –
15 | N#CCCn1cc(C=C2C(=O)NN=C2c2ccco2)c2ccccc21 [Compound 67] | 20 | 40 | 3 | – | – | –
16 | O=C1NN=C(c2cc3ccccc3o2)C1=Cc1c[nH]c2ccccc12 [Compound 58] | 47 | 30 | 44 | – | – | –
17 | COc1ccc2[nH]cc(C=C3C(=O)NN=C3c3ccco3)c2c1 [Compound 51] | 55 | 56 | 26 | – | – | –
18 | Cc1cccc2c(C=C3C(=O)NN=C3c3ccco3)c[nH]c12 [Compound 47] | 64 | 37 | 33 | – | – | –
19 | O=C1NN=C(c2nccs2)C1=Cc1cn(Cc2ccccc2)c2ccccc12 [Compound 70] | 51 | 32 | 21 | – | – | –

Row | Structure (SMILES) | VEGFR-2 kinase % inhibition @ 1 uM [1] [%] | trkA % inhibition @ 1 uM [2] [%] | MLK-1 Kinase % inhibition @ 1 uM (baculoviral GST-MLK1KD) [%] | inhibition at 1 µM [1] [%] | inhibition at 1 µM [2] [%] | inhibition at 1 µM (baculoviral GST-MLK1KD) [%]
20 | Cc1cc(C)c(C=C2C(=O)NN=C2c2ccn(C)c2)[nH]1 [Compound 23] | 7 | 26 | 30 | – | – | –
21 | O=C1NN=C(c2cccs2)C1=Cc1c[nH]c2ccccc12 [Compound 62] | 52 | 45 | 15 | – | – | –
22 | O=C1NN=C(c2ccoc2)C1=Cc1ncc[nH]1 [Compound 15] | 11 | 15 | −3 | – | – | –
23 | Cc1cc(C)c(C=C2C(=O)NN=C2c2cccn2C)[nH]1 [Compound 55] | 38 | 47 | −5 | – | – | –
24 | O=C1NN=C(c2ccoc2)C1=Cc1c[nH]c2ccc(Cl)cc12 [Compound 17] | 48 | 52 | 6 | – | – | –
25 | O=C1NN=C(c2nccs2)C1=Cc1c[nH]c2ccccc12 [Compound 25, 4-(indol-3-ylmethylene)-3-(1,3-thiazol-2-yl)-2-pyrazolin-5-one] | – | – | – | 64 | 65 | 11
26 | Cc1cccc2c(C=C3C(=O)NN=C3c3ccn(C)c3)c[nH]c12 [Compound 34] | 32 | 25 | 17 | – | – | –
27 | Cn1ccc(C2=NNC(=O)C2=Cc2c[nH]c3ccccc23)c1 [Compound 24] | 32 | 22 | 10 | – | – | –
28 | O=C1NN=C(c2cccs2)C1=Cc1cn(Cc2ccccc2)c2ccccc12 [Compound 75] | 32 | 23 | 5 | – | – | –
29 | CN(C)c1ccc(C=C2C(=O)NN=C2c2ccco2)cc1 [Compound 52] | 19 | 10 | 5 | – | – | –
30 | Cc1cc(C)c(C=C2C(=O)NN=C2c2ccco2)[nH]1 [Compound 28, 4-[(3,5-dimethylpyrrol-2-yl)methylene]-3-(2-furyl)-2-pyrazolin-5-one] | – | – | – | 80 | 34 | 2
31 | Cc1[nH]c(C=C2C(=O)NN=C2c2ccoc2)c(Br)c1Br [Compound 8] | 35 | 20 | 15 | – | – | –
32 | CC(C)Cn1cc(C=C2C(=O)NN=C2c2nccs2)c2ccccc21 [Compound 73] | 15 | 8 | −1 | – | – | –
33 | O=C1NN=C(c2ccco2)C1=Cc1c[nH]c2cccc(OCc3ccccc3)c12 [Compound 44] | 18 | 23 | 25 | – | – | –
34 | COC(=O)c1ccc2[nH]cc(C=C3C(=O)NN=C3c3ccoc3)c2c1 [Compound 16] | 34 | 29 | 18 | – | – | –
35 | Cn1cc(C=C2C(=O)NN=C2c2cc3ccccc3o2)c2ccccc21 [Compound 59] | 14 | 40 | 41 | – | – | –
36 | Cn1cc(C=C2C(=O)NN=C2c2ccoc2)c2ccccc21 [Compound 20] | 67 | 60 | 21 | – | – | –
37 | COC(=O)c1ccc2c(C=C3C(=O)NN=C3c3ccco3)c[nH]c2c1 [Compound 50] | 44 | 28 | 11 | – | – | –
